Results: ChEMBL document CHEMBL1201862, “PubChem BioAssay data set” (2004)
Activity calls are given as the source filed them.

Assays:
Cytochrome P450 2D6 = Cytochrome P450 2D6 (Homo sapiens, UniProt P10635); test: qHTS Assay for Inhibitors and Substrates of Cytochrome P450 2D6. [Related pubchem assays: 410 ]; assay type: ADME; conditions: read-out: Potency
Cytochrome P450 2C19 = Cytochrome P450 2C19 (Homo sapiens, UniProt P33261); test: qHTS Assay for Inhibitors and Substrates of Cytochrome P450 2C19. [Related pubchem assays: 410 ]; assay type: ADME; conditions: read-out: Potency
Sequence of Cytochrome P450 2C19 (P33261 whole entry): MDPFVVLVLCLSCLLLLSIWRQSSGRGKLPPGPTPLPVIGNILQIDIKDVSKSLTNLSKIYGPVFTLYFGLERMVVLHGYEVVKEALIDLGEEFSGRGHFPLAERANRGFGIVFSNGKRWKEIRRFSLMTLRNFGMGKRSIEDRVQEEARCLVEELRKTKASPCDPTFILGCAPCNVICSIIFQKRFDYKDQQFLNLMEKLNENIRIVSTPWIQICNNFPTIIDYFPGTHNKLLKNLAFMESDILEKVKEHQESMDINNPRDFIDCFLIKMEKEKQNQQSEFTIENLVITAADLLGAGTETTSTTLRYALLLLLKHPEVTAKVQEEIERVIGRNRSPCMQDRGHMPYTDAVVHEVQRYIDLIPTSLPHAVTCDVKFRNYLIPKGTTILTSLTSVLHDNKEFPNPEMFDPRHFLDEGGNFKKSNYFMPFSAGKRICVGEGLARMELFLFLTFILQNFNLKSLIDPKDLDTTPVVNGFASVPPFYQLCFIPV

NADPH oxidase 1 = NADPH oxidase 1 (Homo sapiens, UniProt Q9Y5S8); test: Late-stage luminescence-based cell-based dose response assay to identify inhibitors of NADPH oxidase 1 (NOX1): Synthesized analogs.; assay type: functional
Sequence of NADPH oxidase 1 (Q9Y5S8 whole entry): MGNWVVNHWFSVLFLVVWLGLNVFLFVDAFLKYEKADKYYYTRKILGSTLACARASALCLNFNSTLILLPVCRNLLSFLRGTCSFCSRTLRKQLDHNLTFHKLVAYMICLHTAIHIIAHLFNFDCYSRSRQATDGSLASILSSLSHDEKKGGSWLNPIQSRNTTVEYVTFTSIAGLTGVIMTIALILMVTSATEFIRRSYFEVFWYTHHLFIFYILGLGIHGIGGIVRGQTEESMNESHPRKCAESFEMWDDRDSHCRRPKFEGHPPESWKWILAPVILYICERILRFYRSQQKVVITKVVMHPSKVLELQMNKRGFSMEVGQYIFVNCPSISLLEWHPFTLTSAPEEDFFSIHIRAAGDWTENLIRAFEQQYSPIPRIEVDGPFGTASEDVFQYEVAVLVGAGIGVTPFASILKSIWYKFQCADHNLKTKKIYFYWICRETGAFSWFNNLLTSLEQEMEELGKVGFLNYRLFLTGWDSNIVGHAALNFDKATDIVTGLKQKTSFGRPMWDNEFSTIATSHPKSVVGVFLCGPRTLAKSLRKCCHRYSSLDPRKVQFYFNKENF

[1] = target: T1, Replicative DNA helicase DnaB (Mycobacterium tuberculosis, UniProt P9WMR3); test: DnaB intein splicing inhibitors, dose response, biochemical, cell-free fluorescence (AID 449749); assay type: functional
T1 sequence (P9WMR3 whole entry): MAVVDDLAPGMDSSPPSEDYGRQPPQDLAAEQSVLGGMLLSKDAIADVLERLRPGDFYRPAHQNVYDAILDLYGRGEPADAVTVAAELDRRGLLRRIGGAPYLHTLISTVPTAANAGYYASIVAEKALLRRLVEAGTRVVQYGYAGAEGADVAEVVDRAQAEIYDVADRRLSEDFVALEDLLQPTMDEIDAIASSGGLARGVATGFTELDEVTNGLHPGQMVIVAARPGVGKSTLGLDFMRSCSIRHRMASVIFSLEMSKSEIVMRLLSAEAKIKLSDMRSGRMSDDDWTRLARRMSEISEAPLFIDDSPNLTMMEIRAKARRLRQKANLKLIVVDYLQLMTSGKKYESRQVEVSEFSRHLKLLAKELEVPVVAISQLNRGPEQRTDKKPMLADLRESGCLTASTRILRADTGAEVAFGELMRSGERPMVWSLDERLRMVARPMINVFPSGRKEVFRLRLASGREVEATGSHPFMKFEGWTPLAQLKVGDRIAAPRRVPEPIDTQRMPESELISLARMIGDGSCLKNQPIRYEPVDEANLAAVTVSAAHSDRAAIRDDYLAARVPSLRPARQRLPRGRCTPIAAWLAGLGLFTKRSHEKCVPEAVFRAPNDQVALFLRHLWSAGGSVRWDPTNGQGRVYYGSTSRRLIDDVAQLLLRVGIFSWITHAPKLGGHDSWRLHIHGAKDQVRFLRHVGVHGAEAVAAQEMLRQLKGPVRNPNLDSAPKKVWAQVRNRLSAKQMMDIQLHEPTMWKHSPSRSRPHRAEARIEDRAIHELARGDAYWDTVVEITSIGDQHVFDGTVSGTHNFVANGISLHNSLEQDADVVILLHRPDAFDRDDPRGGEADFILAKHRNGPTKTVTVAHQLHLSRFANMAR

[2] = target: T2, Sphingosine 1-phosphate receptor 4 (Homo sapiens, UniProt O95977); test: Fluorescence dose response cell-based high throughput screening assay for antagonists of the Sphingosine 1-Phosphate Receptor 4 (S1P4). [Related pubchem assays: 1524 (Confirmation in triplicates.), 1510 (Primary screen.)]; assay type: functional
T2 sequence (O95977 whole entry): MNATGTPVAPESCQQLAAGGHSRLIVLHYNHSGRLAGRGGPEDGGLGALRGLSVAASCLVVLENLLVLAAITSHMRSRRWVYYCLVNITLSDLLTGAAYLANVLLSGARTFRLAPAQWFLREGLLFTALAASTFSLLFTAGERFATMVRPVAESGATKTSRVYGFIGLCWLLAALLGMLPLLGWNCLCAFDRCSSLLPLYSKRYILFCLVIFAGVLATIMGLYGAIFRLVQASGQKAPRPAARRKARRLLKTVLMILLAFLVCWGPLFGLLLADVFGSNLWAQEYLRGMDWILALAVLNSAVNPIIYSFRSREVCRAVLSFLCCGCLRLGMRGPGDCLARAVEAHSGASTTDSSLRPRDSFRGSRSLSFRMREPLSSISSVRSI

[3] = target: T2, Sphingosine 1-phosphate receptor 4; test: Late stage fluorescence dose response cell-based screening assay for antagonists of the Sphingosine 1-Phosphate Receptor 4 (S1P4). [Related pubchem assays: 1524 (Confirmation screen (S1P4 antagonists).), 1510 (Primary screen (S1P4 antagonists).), 1853 (Summary AID (S1P4 antagonists).), 1692 (Dose response screen (S1P4 antagonists).)]; assay type: functional
Protein RecA = target: T3, Protein RecA (Mycobacterium tuberculosis, UniProt P9WHJ3); test: Fluorescence Cell-Free Homogeneous Dose Retest to Identify Inhibitors of RecA-Intein Splicing Activity. [Related pubchem assays (depositor defined):AID2097, AID2223, AID489010, AID492950]; assay type: functional
T3 sequence (P9WHJ3 whole entry): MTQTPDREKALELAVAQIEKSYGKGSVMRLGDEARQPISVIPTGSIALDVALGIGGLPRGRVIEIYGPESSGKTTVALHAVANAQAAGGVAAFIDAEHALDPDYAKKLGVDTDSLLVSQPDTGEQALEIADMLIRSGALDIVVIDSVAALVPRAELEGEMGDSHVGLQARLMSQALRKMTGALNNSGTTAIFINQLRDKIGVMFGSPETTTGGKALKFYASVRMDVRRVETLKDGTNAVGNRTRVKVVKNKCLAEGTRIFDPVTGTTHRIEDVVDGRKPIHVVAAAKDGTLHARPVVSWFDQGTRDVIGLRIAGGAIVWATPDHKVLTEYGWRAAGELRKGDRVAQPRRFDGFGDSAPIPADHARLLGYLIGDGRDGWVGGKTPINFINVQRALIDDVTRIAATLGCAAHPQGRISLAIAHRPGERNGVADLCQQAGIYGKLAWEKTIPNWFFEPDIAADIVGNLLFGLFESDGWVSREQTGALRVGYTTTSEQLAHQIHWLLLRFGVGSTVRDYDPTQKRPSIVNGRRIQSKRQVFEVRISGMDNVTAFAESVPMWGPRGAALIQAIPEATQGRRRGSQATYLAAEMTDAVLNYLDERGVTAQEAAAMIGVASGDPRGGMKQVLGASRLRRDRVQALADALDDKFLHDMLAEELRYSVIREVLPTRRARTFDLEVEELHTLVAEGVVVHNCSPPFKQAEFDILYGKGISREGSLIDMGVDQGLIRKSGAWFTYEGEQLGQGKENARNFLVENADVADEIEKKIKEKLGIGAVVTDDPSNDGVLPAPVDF

[4] = NIH-3T3 fibroblast cytotoxicity, dose response, cytotoxicity control, cell-based, fluorescence, Alamar Blue, secondary assay (AID 2327); assay type: functional;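 note: NIH-3T3 mouse fibroblasts cultured with fluconazole at 8 µg/mL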
[5] = viability of HCT116 lacking mutant beta-catenin – cell-based, human colon tumor, dose response (AID 1045); assay type: functional;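 note: HCT116 colon tumor cells with beta catenin knocked out; cells exposed to compound for 60 hours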
[6] = target: Sphingosine 1-phosphate receptor 1 (Homo sapiens, UniProt P21453); assay type: functional;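 note: Tango beta-arrestin reporter U2OS cells stimulated with S1P near its EC80; inhibitor potency meaning antagonism of receptor activation by the natural agonist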
Sequence of Sphingosine 1-phosphate receptor 1 (P21453 whole entry): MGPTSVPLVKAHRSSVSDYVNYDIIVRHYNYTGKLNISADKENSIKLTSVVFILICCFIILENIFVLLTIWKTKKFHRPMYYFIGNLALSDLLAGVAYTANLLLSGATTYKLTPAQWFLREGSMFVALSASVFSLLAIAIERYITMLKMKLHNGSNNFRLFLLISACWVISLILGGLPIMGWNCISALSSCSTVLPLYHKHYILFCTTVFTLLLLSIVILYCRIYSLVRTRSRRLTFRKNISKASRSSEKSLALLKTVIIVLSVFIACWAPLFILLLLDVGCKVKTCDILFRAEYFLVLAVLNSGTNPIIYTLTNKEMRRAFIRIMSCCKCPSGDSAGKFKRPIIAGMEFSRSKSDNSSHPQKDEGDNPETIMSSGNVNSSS

[7] = viability of PTEN-deleted HCT116 cells – cell-based, HCT116 PTEN knockout, dose response (AID 1047); assay type: functional;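 note: HCT116 colon tumor cells with PTEN knocked out; cells exposed to compound for 60 hours before readout; potency for loss of cell viability measured by luminescence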
[8] = fluconazole-exposed Candida albicans growth modulators – fluorescence, retest, confirmation (AID 2467); assay type: functional, cell-based
[9] = target: T4, Heat shock factor protein 1 (Mus musculus, UniProt P38532); test: enhancement of HSF1-driven luciferase signal – cell-based, NIH3T3, luminescence, dose retest, confirmation (AID 435004); assay type: functional;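 note: stress induced by proteasome inhibitor MG132 added 30 min after compound; luciferase reporter driven by HSF1 response element in NIH3T3 cells; actives raise luminescence as potentiators of the MG132 stress response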
T4 sequence (P38532 whole entry): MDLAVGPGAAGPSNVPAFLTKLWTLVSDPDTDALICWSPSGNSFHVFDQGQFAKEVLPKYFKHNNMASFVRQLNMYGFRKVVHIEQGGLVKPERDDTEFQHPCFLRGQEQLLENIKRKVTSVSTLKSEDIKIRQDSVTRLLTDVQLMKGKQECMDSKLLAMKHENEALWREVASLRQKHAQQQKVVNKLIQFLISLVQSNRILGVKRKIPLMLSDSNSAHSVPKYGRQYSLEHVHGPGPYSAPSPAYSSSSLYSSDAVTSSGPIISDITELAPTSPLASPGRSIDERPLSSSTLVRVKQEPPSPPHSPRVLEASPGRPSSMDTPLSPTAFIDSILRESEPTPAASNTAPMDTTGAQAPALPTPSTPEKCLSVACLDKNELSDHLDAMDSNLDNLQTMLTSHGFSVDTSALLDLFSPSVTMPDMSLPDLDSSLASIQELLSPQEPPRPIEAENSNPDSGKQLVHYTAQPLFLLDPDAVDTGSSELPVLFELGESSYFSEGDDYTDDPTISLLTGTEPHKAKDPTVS

Sequence of Cytochrome P450 2D6 (P10635 whole entry): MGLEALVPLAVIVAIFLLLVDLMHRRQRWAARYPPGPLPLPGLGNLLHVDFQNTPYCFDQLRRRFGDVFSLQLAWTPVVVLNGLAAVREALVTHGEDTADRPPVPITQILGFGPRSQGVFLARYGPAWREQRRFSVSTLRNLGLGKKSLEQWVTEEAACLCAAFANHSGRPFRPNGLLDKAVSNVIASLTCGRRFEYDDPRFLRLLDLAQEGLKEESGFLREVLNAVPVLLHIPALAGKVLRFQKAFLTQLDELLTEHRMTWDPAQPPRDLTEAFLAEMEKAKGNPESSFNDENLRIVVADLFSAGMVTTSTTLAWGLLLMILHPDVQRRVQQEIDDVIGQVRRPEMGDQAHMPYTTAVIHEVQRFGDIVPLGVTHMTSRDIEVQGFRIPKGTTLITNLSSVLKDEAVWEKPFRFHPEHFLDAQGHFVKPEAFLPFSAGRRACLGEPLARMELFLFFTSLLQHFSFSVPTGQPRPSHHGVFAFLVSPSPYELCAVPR

With COC(=O)NC(/C(C(=O)OC)=C(\C)NCc1ccccc1)c1cccc(C)c1 (stereo not drawn) the AC50 (Cytochrome P450 2D6) was 7.94 µM (inconclusive) and the AC50 (Cytochrome P450 2C19) was 6.31 µM (inconclusive).
For CCN1c2ccccc2S(=O)(=O)c2ccccc21, the IC50 (NADPH oxidase 1) was > 50 µM (not active).
In the case of O=S(=O)(c1ccc(Cl)c(Cl)c1)c1snnc1-c1ccccc1, the AC50 [1] is reported as 2.89 µM (active), the IC50 [2] is reported as 0.524 µM (active) and the IC50 [3] is reported as 10.8 µM (not active). For the same compound, the EC50 (Protein RecA) was 0.504 µM (active), the EC50 [4] was 18.3 µM (active) and the EC50 [5] was 0.083 µM (active). For the same compound, the IC50 [6] was 4.29 µM (active), the EC50 [7] was 0.117 µM (active) and the EC50 [8] was > 38 µM (not active). For the same compound, the EC50 [9] was 9.7 µM (active).
